Entries after “also recorded” stand apart in the source; their conditions may differ.
What was measured:
[1] = system: trypsin-like (T-L) proteasome activity; assay: Proteasome inhibition in packed whole blood: T-L; type: in vivo, human; conditions: for compensatory hyperactivation of T-L and C-L proteasome subunits: repeated dosing
Excerpt: The drugs were infused on 28-Day Cycles.
Change in proteasome activities in packed whole blood (PWB) lysates and peripheral blood mononuclear cell (PBMC) lysates, comparing pre-drug and post drug levels on Days 1, 8, and 15 of Cycle 1; Days 1 and 15 of each Cycle thereafter; and at the End-of Treatment Visit.
The laboratory correlates include assessment of the percentage inhibition of proteasome function (evaluated by measurement of CT-L, T-L and C-L activity in blood isolates such as whole blood and PBMC lysates.
PD analysis will include change in proteasome activities (whole blood lysates and PBMC lysates) by comparing pre-drug and post drug levels on Days 1, 8, and 15 (i.e., for each dose) of Cycle 1 and Days 1 and 15 (i.e., for the first and last doses) of each cycle thereafter.

[2] = Phase 1b MRZ + TMZ (+RT) in newly diagnosed G4 MG: adverse events, DLT; type: in vivo, human
Protocol: This is a Phase 1b, open-label, 3+3, dose-escalation followed by dose-expansion study in patients with newly diagnosed G4 MG who have not previously received any local or systemic therapy for their G4 MG. The study will examine the effect of the addition of MRZ to standard of care treatment utilizing two study arms: Concomitant Treatment in which MRZ will be combined with TMZ+RT and Adjuvant Treatment in which MRZ will be combined with TMZ. The study will be conducted in two Stages. In Stage 1 (Dose-Escalation): 3 to 6 evaluable patients per MRZ dose cohort will be enrolled in each study arm. […] A total of approximately 48 patients will be enrolled in Stages 1 and 2 combined. Patients may not be enrolled in more than 1 MRZ dose cohort per arm.
Concomitant Treatment consists of a 6 week (42 day) treatment period, followed by a 4 (−1) week break from treatments. All patients will receive intravenous (IV) MRZ infusion on Days 1, 8, 15, 29, and 36 as a 10 minute infusion. IV hydration will be given prior to the infusion. Focal RT will be administered once daily, 5 days/week, for 30 doses over 6 weeks to a total dose of 60 Gy, starting on Day 1. TMZ will be administered once daily, 7 days/week, for 6 weeks, starting on Day 1, at a dose of 75 mg/m^2. Patients who complete Concomitant Treatment may continue on to Adjuvant Treatment.
All patients will receive IV MRZ infusion on Days 1, 8, and 15 as a 10 minute infusion, in 28-day cycles. IV hydration will be given prior to the infusion. TMZ will be administered daily for 5 consecutive days, starting on Day 1 of Cycle 1 (C1D1), at a dose of 150 mg/m^2. If tolerated in Cycle 1, the TMZ dose will be increased on Day 1 of Cycle 2 (C2D1) to a dose of 200 mg/m^2.

[3] = N = 20, related to the labelled drug
[4] = N = 20, related to the labelled drug (MRZ+TMZ = related to both)
[5] = patient 301-A202, action taken None
[6] = patient 301-C202, action taken None

C[C@@]12OC(=O)[C@]1([C@@H](O)[C@@H]1C=CCCC1)NC(=O)[C@@H]2CCCl [marizomib]
% T-L inhibition ([1]; PWB post-MRZ infusion (peak effect), 0.7 mg/m^2 (17 May 2016)): 77.3 ± 10.5 (3) % | compensatory hyperactivation of T-L and C-L proteasome subunits [1]: overcome compensatory hyperactivation of proteasome subunits; also recorded: overcomes compensatory hyperactivation | compensatory hyperactivation of T-L and C-L proteasome subunits ([1]; listed as MRZ): overcomes compensatory hyperactivation of proteasome subunits | Discontinued, reason Adverse Event ([2]; N = 20): 1 (5.0%) | Dose reduction, reason Adverse Event ([2]; N = 20): 1 (5.0%) | Number of Patients with drug Discontinued ([2]; N = 20): 1 (5.0%) | Number of Patients with ≥1 Dose Reduction ([2]; N = 20): 1 (5.0%) | patients with MRZ-related serious adverse events ([2]; N = 20): One | patients with fatigue Grade ≥3 ([2]; N = 20): Three | Abdominal pain, Grade ≥3 TEAE, drug related [2, 3]: 0 (0.0%) | Confusional state, treatment-related TEAE, number of patients [2, 3]: 3 | Confusional state, treatment-related TEAE, percent of patients [2, 3]: (15.0%) | Constipation, treatment-related TEAE, number of patients [2, 3]: 1 | Constipation, treatment-related TEAE, percent of patients [2, 3]: (5.0%) | Decreased appetite, treatment-related TEAE, number of patients [2, 3]: 4 | Decreased appetite, treatment-related TEAE, percent of patients [2, 3]: (20.0%) | Dehydration, Grade ≥3 TEAE, drug related [2, 3]: 1 (5.0%) | Diarrhoea, treatment-related TEAE, number of patients [2, 3]: 2 | Diarrhoea, treatment-related TEAE, percent of patients [2, 3]: (10.0%) | Dizziness, treatment-related TEAE, number of patients [2, 3]: 4 | Dizziness, treatment-related TEAE, percent of patients [2, 3]: (20.0%) | Hallucination, Grade ≥3 TEAE, drug related [2, 3]: 1 (5.0%) | Hallucination, treatment-related TEAE, number of patients [2, 3]: 5 | Hallucination, treatment-related TEAE, percent of patients [2, 3]: (25.0%) | Headache, Grade ≥3 TEAE, drug related [2, 3]: 0 (0.0%) | Headache, treatment-related TEAE, number of patients [2, 3]: 3 | Headache, treatment-related TEAE, percent of patients [2, 3]: (15.0%) | Insomnia, Grade ≥3 TEAE, drug related [2, 3]: 0 (0.0%) | Muscular weakness, treatment-related TEAE, number of patients [2, 3]: 3 | Muscular weakness, treatment-related TEAE, percent of patients [2, 3]: (15.0%) | Musculoskeletal pain, Grade ≥3 TEAE, drug related [2, 3]: 0 (0.0%) | Nausea, treatment-related TEAE, number of patients [2, 3]: 9 | Nausea, treatment-related TEAE, percent of patients [2, 3]: (45.0%) | Ovarian cyst, Grade ≥3 TEAE, drug related [2, 3]: 0 (0.0%) | Pelvic infection, Grade ≥3 TEAE, drug related [2, 3]: 0 (0.0%) | Platelet count decreased, Grade ≥3 TEAE, drug related [2, 3]: 1 (5.0%) | Platelet count decreased, treatment-related TEAE, number of patients [2, 3]: 2 | Platelet count decreased, treatment-related TEAE, percent of patients [2, 3]: (10.0%) | Rash maculo-papular, treatment-related TEAE, number of patients [2, 3]: 1 | Rash maculo-papular, treatment-related TEAE, percent of patients [2, 3]: (5.0%) | Vomiting, Grade ≥3 TEAE, drug related [2, 3]: 1 (5.0%) | Vomiting, treatment-related TEAE, number of patients [2, 3]: 5 | Vomiting, treatment-related TEAE, percent of patients [2, 3]: (25.0%) | Fatigue, Grade ≥3 TEAE, drug related [2, 4]: 3 (15.0%) | Fatigue, treatment-related TEAE, number of patients [2, 4]: 13 | Fatigue, treatment-related TEAE, percent of patients [2, 4]: (65.0%) | Grade 2 SAEs (nausea, confusional state), MRZ-related ([2]; interim analysis, 20 patients): two | Grade 3 SAEs (fatigue, hallucination, vomiting), MRZ-related ([2]; interim analysis, 20 patients): three | tolerability ([2]; newly diagnosed G4 MG): well tolerated | SAE Nephrolithiasis, relationship to drug ([2]; patient 104-C302, action taken None): Not Suspected/ | SAE Confusional state, relationship to drug [2, 5]: Suspected/ | SAE Dehydration, relationship to drug [2, 5]: Not Suspected/ | SAE Fatigue, relationship to drug [2, 5]: Suspected/ | SAE Hallucination, relationship to drug [2, 5]: Suspected/ | SAE Nausea, relationship to drug [2, 5]: Suspected/ | SAE Vomiting, relationship to drug [2, 5]: Suspected/ | SAE Ovarian cyst, relationship to drug ([2]; patient 301-C202, action taken Dose Delayed): Not Suspected/ | SAE Convulsion, relationship to drug [2, 6]: Not Suspected/ | SAE Pelvic infection, relationship to drug [2, 6]: Not Suspected/

Source: patent US10894036B2, “Use of marizomib for the treatment of central nervous system (CNS) cancers” (Celgene International II Sàrl, priority 2016, dated 2021)
